In ChEMBL document CHEMBL1201862, “PubChem BioAssay data set” (2004):
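Interpolation was linear, between the two tested concentrations surrounding the appropriate level; five concentrations were tested over 48 hours in 96-well plates. GI50 marks 50% less growth.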 Calls of active or inactive are those of the source. Rule as the data show it: active = GI50 up to about 1.1 µM and inactive = higher.

Key:
Assay in all cases: NCI tumour cell line growth inhibition, 48 h
IGROV-1 = tested on: IGROV-1
DU-145 = tested on: DU-145
OVCAR-8 = tested on: OVCAR-8
M14 = tested on: M14
A498 = tested on: A498
SN12C = tested on: SN12C
NCI-H522 = tested on: NCI-H522
HCC 2998 = tested on: HCC 2998
MCF7 = tested on: MCF7
UACC-62 = tested on: UACC-62
BT-549 = tested on: BT-549
MOLT-4 = tested on: MOLT-4
RPMI-8226 = tested on: RPMI-8226
SW-620 = tested on: SW-620
Malme-3M = tested on: Malme-3M
K562 = tested on: K562
UACC-257 = tested on: UACC-257
T47D = tested on: T47D
OVCAR-5 = tested on: OVCAR-5
SK-MEL-28 = tested on: SK-MEL-28
MDA-N = tested on: MDA-N
786-0 = tested on: 786-0
NCI/ADR-RES = tested on: NCI/ADR-RES
NCI-H23 = tested on: NCI-H23
A549 = tested on: A549
UO-31 = tested on: UO-31
CAKI-1 = tested on: CAKI-1
HCT-15 = tested on: HCT-15
HCT-116 = tested on: HCT-116
SK-OV-3 = tested on: SK-OV-3
SF-295 = tested on: SF-295
SNB-19 = tested on: SNB-19
SF-539 = tested on: SF-539
TK-10 = tested on: TK-10
SR = tested on: SR
OVCAR-3 = tested on: OVCAR-3
NCI-H226 = tested on: NCI-H226
KM12 = tested on: KM12
OVCAR-4 = tested on: OVCAR-4
EKVX = tested on: EKVX
CCRF-CEM = tested on: CCRF-CEM
U-251 = tested on: U-251
SNB-75 = tested on: SNB-75
RXF 393 = tested on: RXF 393
MDA-MB-435 = tested on: MDA-MB-435
COLO 205 = tested on: COLO 205
SK-MEL-2 = tested on: SK-MEL-2
HOP-62 = tested on: HOP-62
SK-MEL-5 = tested on: SK-MEL-5
PC-3 = tested on: PC-3
NCI-H460 = tested on: NCI-H460
LOX IMVI = tested on: LOX IMVI
HT-29 = tested on: HT-29
HOP-92 = tested on: HOP-92
SF-268 = tested on: SF-268
ACHN = tested on: ACHN
HL-60 = tested on: HL-60
MDA-MB-231 = tested on: MDA-MB-231
Hs-578T = tested on: Hs-578T

COc1cc2cc(C(=O)N3CC(CCl)c4ccc(NO)cc43)[nH]c2c(OC)c1OC (configuration not stated)
GI50 (IGROV-1): 0.0968 µM (active)
GI50 (DU-145): 0.0953 µM (active)
GI50 (OVCAR-8): 0.184 µM (active)
GI50 (M14): 0.188 µM (active)
GI50 (A498): 0.0675 µM (active)
GI50 (SN12C): 0.286 µM (active)
GI50 (NCI-H522): 0.0671 µM (active)
GI50 (HCC 2998): 0.0977 µM (active)
GI50 (MCF7): 0.0391 µM (active)
GI50 (UACC-62): 0.0991 µM (active)
GI50 (BT-549): 0.253 µM (active)
GI50 (MOLT-4): 0.184 µM (active)
GI50 (RPMI-8226): 0.117 µM (active)
GI50 (SW-620): 0.166 µM (active)
GI50 (Malme-3M): 0.164 µM (active)
GI50 (K562): 0.139 µM (active)
GI50 (UACC-257): 0.201 µM (active)
GI50 (T47D): 0.436 µM (active)
GI50 (OVCAR-5): 0.15 µM (active)
GI50 (SK-MEL-28): 0.245 µM (active)
GI50 (MDA-N): 0.249 µM (active)
GI50 (786-0): 0.287 µM (active)
GI50 (NCI/ADR-RES): 0.0723 µM (active)
GI50 (NCI-H23): 0.0693 µM (active)
GI50 (A549): 0.0897 µM (active)
GI50 (UO-31): 0.0325 µM (active)
GI50 (CAKI-1): 0.227 µM (active)
GI50 (HCT-15): 0.243 µM
GI50 (HCT-116): 0.253 µM (active)
GI50 (SK-OV-3): 0.284 µM (active)
GI50 (SF-295): 0.0836 µM (active)
GI50 (SNB-19): 0.264 µM (active)
GI50 (SF-539): 0.353 µM (active)
GI50 (TK-10): 0.313 µM (active)
GI50 (SR): 0.0577 µM (active)
GI50 (OVCAR-3): 0.257 µM (active)
GI50 (NCI-H226): 0.244 µM (active)
GI50 (KM12): 0.155 µM (active)
GI50 (OVCAR-4): 0.177 µM (active)
GI50 (EKVX): 0.35 µM (active)
GI50 (CCRF-CEM): 0.137 µM (active)
GI50 (U-251): 0.0927 µM (active)
GI50 (SNB-75): 0.177 µM (active)
GI50 (RXF 393): 0.114 µM (active)
GI50 (MDA-MB-435): 0.216 µM (active)
GI50 (COLO 205): 0.468 µM (active)
GI50 (SK-MEL-2): 0.126 µM (active)
GI50 (HOP-62): 0.0925 µM (active)
GI50 (SK-MEL-5): 0.0984 µM (active)
GI50 (PC-3): 0.0914 µM (active)
GI50 (NCI-H460): 0.0446 µM (active)
GI50 (LOX IMVI): 0.164 µM (active)
GI50 (HT-29): 0.0646 µM (active)
GI50 (HOP-92): 0.352 µM (active)
GI50 (SF-268): 0.101 µM (active)
GI50 (ACHN): 0.091 µM (active)
GI50 (HL-60): 0.126 µM (active)
GI50 (MDA-MB-231): 0.254 µM (active)
GI50 (Hs-578T): 0.296 µM (active)

Cc1cn([C@@H]2O[C@H](CO)[C@@H](O)[C@@H]2O)c(=O)[nH]c1=O
GI50 (IGROV-1): > 1000 µM (inactive)
GI50 (DU-145): > 1000 µM (inactive)
GI50 (OVCAR-8): > 1000 µM (inactive)
GI50 (M14): > 1000 µM (inactive)
GI50 (A498): > 1000 µM (inactive)
GI50 (SN12C): > 1000 µM (inactive)
GI50 (NCI-H522): > 1000 µM (inactive)
GI50 (HCC 2998): > 1000 µM (inactive)
GI50 (MCF7): > 1000 µM (inactive)
GI50 (UACC-62): > 1000 µM (inactive)
GI50 (BT-549): > 1000 µM (inactive)
GI50 (MOLT-4): > 1000 µM (inactive)
GI50 (RPMI-8226): > 1000 µM (inactive)
GI50 (SW-620): > 1000 µM (inactive)
GI50 (Malme-3M): > 1000 µM (inactive)
GI50 (K562): > 1000 µM (inactive)
GI50 (UACC-257): > 1000 µM (inactive)
GI50 (T47D): > 1000 µM (inactive)
GI50 (OVCAR-5): > 1000 µM (inactive)
GI50 (SK-MEL-28): > 1000 µM (inactive)
GI50 (MDA-N): > 1000 µM (inactive)
GI50 (786-0): > 1000 µM (inactive)
GI50 (NCI/ADR-RES): > 1000 µM (inactive)
GI50 (NCI-H23): > 1000 µM (inactive)
GI50 (A549): > 1000 µM (inactive)
GI50 (UO-31): > 1000 µM (inactive)
GI50 (CAKI-1): > 1000 µM (inactive)
GI50 (HCT-15): > 1000 µM
GI50 (HCT-116): > 1000 µM (inactive)
GI50 (SK-OV-3): > 1000 µM (inactive)
GI50 (SF-295): > 1000 µM (inactive)
GI50 (SNB-19): > 1000 µM (inactive)
GI50 (SF-539): > 1000 µM (inactive)
GI50 (TK-10): > 1000 µM (inactive)
GI50 (SR): > 1000 µM (inactive)
GI50 (OVCAR-3): > 1000 µM (inactive)
GI50 (NCI-H226): > 1000 µM (inactive)
GI50 (KM12): > 1000 µM (inactive)
GI50 (OVCAR-4): > 1000 µM (inactive)
GI50 (EKVX): > 1000 µM (inactive)
GI50 (CCRF-CEM): > 1000 µM (inactive)
GI50 (U-251): > 1000 µM (inactive)
GI50 (SNB-75): > 1000 µM (inactive)
GI50 (RXF 393): > 1000 µM (inactive)
GI50 (MDA-MB-435): > 1000 µM (inactive)
GI50 (COLO 205): > 1000 µM (inactive)
GI50 (SK-MEL-2): > 1000 µM (inactive)
GI50 (HOP-62): > 1000 µM (inactive)
GI50 (SK-MEL-5): > 1000 µM (inactive)
GI50 (PC-3): > 1000 µM (inactive)
GI50 (NCI-H460): > 1000 µM (inactive)
GI50 (LOX IMVI): > 1000 µM (inactive)
GI50 (HT-29): > 1000 µM (inactive)
GI50 (HOP-92): > 1000 µM (inactive)
GI50 (SF-268): > 1000 µM (inactive)
GI50 (ACHN): > 1000 µM (inactive)
GI50 (HL-60): > 1000 µM (inactive)
GI50 (MDA-MB-231): > 1000 µM (inactive)
GI50 (Hs-578T): > 1000 µM (inactive)

CNC(=O)C(C)NC(=O)C(Cc1ccccc1)NC(=O)c1ccccc1 (configuration not stated)
GI50 (IGROV-1): > 100 µM (inactive)
GI50 (DU-145): > 100 µM (inactive)
GI50 (OVCAR-8): > 100 µM (inactive)
GI50 (M14): > 100 µM (inactive)
GI50 (A498): > 100 µM (inactive)
GI50 (SN12C): > 100 µM (inactive)
GI50 (NCI-H522): > 100 µM (inactive)
GI50 (HCC 2998): > 100 µM (inactive)
GI50 (MCF7): > 100 µM (inactive)
GI50 (UACC-62): > 100 µM (inactive)
GI50 (BT-549): > 100 µM (inactive)
GI50 (MOLT-4): > 100 µM (inactive)
GI50 (RPMI-8226): > 100 µM (inactive)
GI50 (SW-620): > 100 µM (inactive)
GI50 (Malme-3M): > 100 µM (inactive)
GI50 (K562): > 100 µM (inactive)
GI50 (UACC-257): > 100 µM (inactive)
GI50 (T47D): > 100 µM (inactive)
GI50 (OVCAR-5): > 100 µM (inactive)
GI50 (SK-MEL-28): > 100 µM (inactive)
GI50 (MDA-N): > 100 µM (inactive)
GI50 (786-0): > 100 µM (inactive)
GI50 (NCI/ADR-RES): > 100 µM (inactive)
GI50 (NCI-H23): > 100 µM (inactive)
GI50 (A549): > 100 µM (inactive)
GI50 (UO-31): > 100 µM (inactive)
GI50 (CAKI-1): > 100 µM (inactive)
GI50 (HCT-15): > 100 µM
GI50 (HCT-116): > 100 µM (inactive)
GI50 (SK-OV-3): > 100 µM (inactive)
GI50 (SF-295): > 100 µM (inactive)
GI50 (SNB-19): > 100 µM (inactive)
GI50 (SF-539): > 100 µM (inactive)
GI50 (TK-10): > 100 µM (inactive)
GI50 (SR): > 100 µM (inactive)
GI50 (OVCAR-3): > 100 µM (inactive)
GI50 (NCI-H226): > 100 µM (inactive)
GI50 (KM12): > 100 µM (inactive)
GI50 (OVCAR-4): > 100 µM (inactive)
GI50 (EKVX): > 100 µM (inactive)
GI50 (CCRF-CEM): > 100 µM (inactive)
GI50 (U-251): > 100 µM (inactive)
GI50 (SNB-75): > 100 µM (inactive)
GI50 (RXF 393): > 100 µM (inactive)
GI50 (MDA-MB-435): > 100 µM (inactive)
GI50 (COLO 205): > 100 µM (inactive)
GI50 (SK-MEL-2): > 100 µM (inactive)
GI50 (HOP-62): > 100 µM (inactive)
GI50 (SK-MEL-5): > 100 µM (inactive)
GI50 (PC-3): > 100 µM (inactive)
GI50 (NCI-H460): > 100 µM (inactive)
GI50 (LOX IMVI): > 100 µM (inactive)
GI50 (HT-29): > 100 µM (inactive)
GI50 (HOP-92): > 100 µM (inactive)
GI50 (SF-268): > 100 µM (inactive)
GI50 (ACHN): > 100 µM (inactive)
GI50 (HL-60): > 100 µM (inactive)
GI50 (MDA-MB-231): > 100 µM (inactive)
GI50 (Hs-578T): > 100 µM (inactive)
